# pIC50, pKd: −log10 of the molar value. “And” between values parts separate entries of the source, which are not always exact repeats. Identical values can stand only once.
# Legend:
# [1] = biological target: T1, ALPK1 (Homo sapiens, UniProt Q96QP1); assay: Western blotting-based in vitro kinase assay; type: biochemical; settings: 20 µM
# Experimental: Compounds were tested at a single final concentration of 20 μM in an in vitro kinase assay including 30 nM recombinant ALPK1 (purified from 293-F cells stimulated with 4% s.t. lysate 4 h before cell lysis) and 1.6 μM His-tagged TIFA in a 20 µl volume. […] An in vitro kinase reaction was conducted at 27 °C for 40 min in the following buffer: 20 mM HEPES pH 7.0, 1 mM TCEP, 10 mM MgCl2, 0.1 mM Na3VO4, 0.6 μM BSA, 5% DMSO and 25 μM ATP. […] After these in vitro kinase reactions, the kinase-substrate mix was fractionated by electrophoresis on denaturing SDS-PAGE gels and transferred to Immobilon-P PVDF membranes (Millipore, MA, USA). Membranes were blocked with 5% milk in TBS with 0.1% Triton-X100. Phosphorylated TIFA were detected by incubating the membrane with an anti-phospho-threonine (#9386, Cell Signaling Technology, Danvers, MA, USA) antibody. […]
# compounds used in the Western blotting to measure the ability of compounds to inhibit the ALPK1-mediated phosphorylation of TIFA. (b) Example of the biochemical approach to validate hits from the thermal shift assay screen. ALPK1 binding compounds were tested in triplicate in an in vitro kinase assay at a final concentration of 20 µM, and the inhibitory effect was evaluated by comparing the phosphorylated TIFA level to that for the no compound control after the kinase reaction by Western blotting.
# Phosphorylated TIFA was detected using an anti-phospho-theronine antibody. ALPK1 binders fell into three categories: inhibitors (e.g. WXHTS0017849, WXHTS WXHTS0037341), activators (e.g.
# WXHTS0086594), and those with no effect (e.g. WXHTS0035788). […]
# [2] = biological target: T2, full-length ALPK1 (Homo sapiens, UniProt Q96QP1); assay: Surface plasmon resonance (SPR); type: binding; settings: with 500 nM ADP-L-heptose
# T2 construct: recombinant full-length ALPK1 kinase purified from Sf9 cells; 3xFlag (C); made in house; host or cells: Sf9 insect cells (baculovirus, pFAST-BAC)
# Experimental: SPR assays were conducted on a Biacore 8 K (Cytiva). […] For analyte testing, flow rates were maintained at 30 µL/min. […] The data collection rate was 10 Hz, and all data were double referenced and solvent corrected. Analysis was performed using Biacore Insight Evaluation software version 5. The 1:1 kinetic binding affinity models were used to fit the data, and all parameters were fitted globally.
# [3] = biological target: T2, full-length ALPK1; assay: Thermal shift assay (TSA); type: binding; settings: for TSA Tm Increase: compound at 10 μM; for increase in melting temperature (Tm): pilot TSA screen / assay validation
# Experimental: A small molecule library containing ~160,000 compounds (HTS Diversity V2) was prepared by WuXi AppTec (Shanghai, China) in 384 well thin-wall qPCR plates, with 20 nL of 10 mM compound preparations in each well. On each screening plate, 2 columns of wells were loaded with 20 nL of pure DMSO to leave spaces for negative controls (no compounds) and the positive control (AS-252424). […] The mixture was spun down at 1000 rpm for 1 min, then immediately applied to a protein melting reaction on a Roche LightCycler® 480 II Real-time PCR system, heating the mixture from 30 °C to 50 °C at the ramp rate of 0.02 °C/s while continuously acquiring the fluorescence signal. The melting temperature (Tm) of the ALPK1 protein with or without each compound was calculated using the Protein Thermal Shift™ Analysis Desktop Software v1.2 (Thermo Fisher Scientific). For positive control wells, 40 μM AS-252424 in 5 μl compound solvent was added manually and used as a positive control in the thermal shift screening.
# [4] = test system: HEK-293 cells transfected with GFP-TIFA; assay: DF-006-induced TIFAsome formation; settings: 1 μM DF-006 alone
# [5] = test system: ROSAH patients; settings: ROSAH patients ref 3; cited from earlier work
# [6] = biological target: T1, ALPK1; assay: biochemical
# T1 sequence (Q96QP1 whole entry): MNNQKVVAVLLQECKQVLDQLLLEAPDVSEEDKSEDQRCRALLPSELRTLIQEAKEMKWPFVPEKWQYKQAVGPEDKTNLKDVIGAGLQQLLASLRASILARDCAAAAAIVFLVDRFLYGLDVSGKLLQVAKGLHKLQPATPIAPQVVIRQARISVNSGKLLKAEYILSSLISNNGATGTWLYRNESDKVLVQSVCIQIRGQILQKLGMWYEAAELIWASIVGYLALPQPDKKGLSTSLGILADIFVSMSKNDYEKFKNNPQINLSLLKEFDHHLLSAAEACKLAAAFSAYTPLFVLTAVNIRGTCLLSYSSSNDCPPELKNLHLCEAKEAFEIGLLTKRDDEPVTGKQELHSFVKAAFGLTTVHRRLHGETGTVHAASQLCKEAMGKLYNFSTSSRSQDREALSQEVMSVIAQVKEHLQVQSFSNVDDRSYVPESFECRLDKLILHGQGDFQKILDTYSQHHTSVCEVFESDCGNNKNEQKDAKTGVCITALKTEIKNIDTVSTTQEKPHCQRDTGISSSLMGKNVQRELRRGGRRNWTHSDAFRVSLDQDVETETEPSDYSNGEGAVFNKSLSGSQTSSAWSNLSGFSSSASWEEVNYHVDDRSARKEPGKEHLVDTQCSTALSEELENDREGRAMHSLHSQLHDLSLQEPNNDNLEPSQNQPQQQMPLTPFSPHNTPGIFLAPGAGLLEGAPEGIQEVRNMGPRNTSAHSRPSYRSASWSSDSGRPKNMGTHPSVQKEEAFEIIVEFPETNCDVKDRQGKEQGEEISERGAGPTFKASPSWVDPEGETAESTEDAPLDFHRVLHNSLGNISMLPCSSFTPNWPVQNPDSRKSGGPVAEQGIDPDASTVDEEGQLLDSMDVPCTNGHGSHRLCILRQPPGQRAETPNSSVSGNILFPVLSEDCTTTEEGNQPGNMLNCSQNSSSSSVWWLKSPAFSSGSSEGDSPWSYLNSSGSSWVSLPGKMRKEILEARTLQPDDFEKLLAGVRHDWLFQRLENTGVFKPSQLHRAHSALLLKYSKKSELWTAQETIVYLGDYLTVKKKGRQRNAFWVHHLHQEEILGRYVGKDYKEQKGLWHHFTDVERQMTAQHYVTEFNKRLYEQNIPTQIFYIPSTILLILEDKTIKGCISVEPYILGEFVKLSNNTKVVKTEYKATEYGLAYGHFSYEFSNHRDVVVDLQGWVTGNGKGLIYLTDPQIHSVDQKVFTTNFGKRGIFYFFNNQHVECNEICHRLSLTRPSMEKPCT
# T2 sequence (Q96QP1 whole entry): as above
effect on ALPK1-mediated TIFA phosphorylation [1],pKd [2],TSA Tm Increase [3],Molecule,also measured
activators,–,–,Cc1ccc(NC(=O)NCC(O)c2ccc(F)cc2F)cc1Cl (stereo not drawn) [WXHTS0086594],–
–,3.55,2.0 °C,O=C(O)c1cc(/N=N/c2ccc(S(=O)(=O)Nc3ccccn3)cc2)ccc1O [Sulfasalazine],–
inhibitors,–,–,Nc1nc(C2(c3ccccc3)CCCC2)cs1 [WXHTS0037341],–
inhibit ALPK1 activity,4.01,2.2 °C,Cc1ccc(C(=O)c2cc(O)c(O)c([N+](=O)[O-])c2)cc1 [Tolcapone],–
–,5.15,1.8 °C,O=C(O)c1cccnc1Nc1cccc(C(F)(F)F)c1 [Niflumic acid],–
inhibitors,–,–,Nc1c(-c2ccncc2)sc2nc(-c3cccs3)ccc12 [WXHTS0017849],–
–,–,–,"CC(=O)OCC(F)C1OC(OP(=O)(O)OP(O)(=S)OCC2OC(n3cnc4c(N)ncnc43)C(O)C2O)C(OC(C)=O)C(OC(C)=O)C1OC(C)=O [DF-006, D-glycero-D-manno-6-fluoro-2,3,4,7-Ac-heptose-1β-S-ADP, reference compound]",Cells with TIFAsomes /GFP positive cells (%) [4]: 50.51% and 61.9% and 51.29% and 50.95% and 60.98%
–,–,–,tocilizumab: anti-IL-6 drug given off-label to ROSAH patients,intraocular inflammation [5]: improved intraocular inflammation (two of two patients)
–,6.00,3.4 °C,O=C1NC(=O)/C(=C/c2ccc(-c3ccc(F)cc3O)o2)S1 [AS-252424],increase in melting temperature (Tm) [3]: 3.4 °C
–,3.58,3.4 °C,Brc1c(Br)c(Br)c2n[nH]nc2c1Br [Tbb],–
–,–,–,Nc1ncnc2c1ncn2[C@@H]1O[C@H](COP(=O)(O)OP(=O)(O)O)[C@@H](O)[C@H]1O [ADP],increase in melting temperature (Tm) [3]: 1.4 °C
inhibit ALPK1 activity,5.00,3.6 °C,CC1=NN(c2ccc(C)c(C)c2)C(=O)/C1=N\Nc1cccc(-c2cccc(C(=O)O)c2)c1O [Eltrombopag],pIC50 [6]: 5.12

Molecule,effect on ALPK1-mediated TIFA phosphorylation [1],pKd [2],TSA Tm Increase [3],also measured
CC(=O)Oc1ccccc1-c1cccc(Cn2cccc(C(=O)Nc3ccc(-c4ccccc4)cc3)c2=O)c1 [WXHTS0035788],no effect,–,–,–
CO[C@@H]1[C@@H](OC(N)=O)[C@@H](O)[C@H](Oc2ccc3c(O)c(NC(=O)c4ccc(O)c(CC=C(C)C)c4)c(=O)oc3c2C)OC1(C)C [Novobiocin],–,–,1.4 °C,–

# Source: article PMC12420824, “Discovery of a selective alpha-kinase 1 inhibitor for the rare genetic disease ROSAH syndrome” (Nature Communications, 2025)
